What was measured:
[1] = Measurement of particle size, polydispersity index and zeta potential of lipid nanoparticle (Zetasizer); assay type: physicochemical
Method: 30 μL of each of the dialyzed lipid nanoparticle-containing solutions obtained by the above operation was measured out, 800 μL of ultrapure water was added to dilute the lipid nanoparticle-containing solution, and the diluted preparation solution was used to measure the particle size (nm) and the polydispersity index (PDI) by using a Zetasizer (manufactured by Malvern Panalytical, Zetasizer nano Ultra). The particle size was evaluated by Z-average in ultrapure water. The zeta potential was measured by using pH 7.4 Tris-HCl as a dilute solution.

[2] = siRNA / mRNA encapsulation rate of lipid nanoparticle (RiboGreen); assay type: physicochemical; conditions: mRNA encapsulation rate of lipid nanoparticle (Table 3)
Method: The siRNA encapsulation rate and the mRNA encapsulation rate of the lipid nanoparticle were obtained as follows. First, a surfactant (Sigma-Aldrich, Triton (registered trademark), X-100 (reducing type)) was added to the lipid nanoparticle-containing solution to disrupt the lipid nanoparticle to release the encapsulated siRNA or mRNA. The amounts of the lipid nanoparticle-containing solution and the surfactant were adjusted such that the siRNA or the mRNA was 2 pmol and the surfactant was 1% in 40 μL of the solution after adding the surfactant to the lipid nanoparticle-containing solution. Next, the RiboGreen reagent (reagent that reacts with siRNA to emit fluorescence, manufactured by Thermo Fisher Scientific, Quant-iT (registered trademark) RiboGreen (registered trademark) RNA Assay Kit) was added to the solution, and the fluorescence intensity was measured under conditions of an excitation wavelength of 480 nm and a fluorescence wavelength of 520 nm with a fluorescence intensity meter (manufactured by TECAN, Infinite M200). Specifically, 75 μL of the RiboGreen reagent diluted to 1/2000 was added to a diluted solution obtained by adding 65 μL of citrate buffer to 10 μL of the solution, and the fluorescence intensity was measured. This makes it possible to relatively measure the total amount of the siRNA or the total amount of the mRNA present in the solution.
Subsequently, the RiboGreen reagent was added to the lipid nanoparticle-containing solution without adding a surfactant, and the fluorescence intensity was measured in the same manner with a fluorescence intensity meter. By not adding a surfactant, it is possible to relatively measure the amount of the siRNA or the mRNA free in the solution without being encapsulated in the lipid nanoparticle.
Then, the fluorescence intensity obtained from the solution to which the surfactant was added obtained as described above was fluorescence intensity a, and the fluorescence intensity thus obtained from the solution to which no surfactant was added obtained as described above was fluorescence intensity b, and according to the expression (a−b)/a×100, the siRNA encapsulation rate (%) or the mRNA encapsulation rate (%) of the lipid nanoparticle was obtained. Each of fluorescence intensity a and fluorescence intensity b is a value obtained by subtracting a blank from the arithmetic average value of the results of three measurements for each solution. The blank was measured by carrying out the same operation on a well containing water containing no cell or lipid nanoparticle.

[3] = tested on: HEK293T cells; assay: Evaluation of protein expression effect (luciferase luminescence), Cell experiment 2; assay type: cell-based; conditions: lipid nanoparticle containing mRNA, 100 ng mRNA/20 μL per well, 24 hours, amount of luminescence as index
Method: (§1) For lipids (Ia), (Ib), and (Ie) of Examples 1, 2, and 5, a cell experiment was carried out by using HEK293T cells and NIH3T3 cells in order to evaluate lipid nanoparticles encapsulating an mRNA. By transfecting the cells with lipid nanoparticles and measuring the amount of a predetermined protein produced, the performance of the lipid nanoparticles used can be evaluated. Hereinafter, the procedure of the cell experiment will be shown.
(§2) A. Seeding of Cells • (i) A liquid medium (DMEM High glucose, FBS+, P/S+) was temperature-controlled in an incubator set at 37° C. • (ii) A cryotube containing cells was taken out from a −80° C. freezer and thawed at once in the incubator set at 37° C. • (iii) A test tube was subjected to a centrifuge to precipitate the cells. • (iv) The supernatant was aspirated, and the liquid medium was added and gently tapped to disperse the cells. • (v) A small amount of the cells-dispersed liquid medium was collected, and the number of cells was observed and counted under a microscope. • (vi) The cells were seeded in three 24-well black plates such that the number of cells was 1×10^4 cells per well. The 24-well black plates were placed in an incubator, and the cells were cultured for 24 hours under conditions of 37° C. and 5% CO2.
(§3) B. Transfection • (i) A lipid nanoparticle-containing solution including an mRNA was concentrated such that the mRNA concentration was 100 ng/20 μL (=0.005 μg/μL). • (ii) A liquid medium (DMEM High glucose, FBS-, P/S-) and FBS were warmed to 37° C., required amounts of the liquid medium and FBS were mixed (FBS concentration of liquid medium at this time: 12.5%), and the prepared liquid medium was filter-sterilized through a 0.22 μm filter. • (iii) The liquid medium supernatant in the 24-well black plates in which the cells were cultured was aspirated and 80 μL per well of the prepared liquid medium was added. • (iv) 20 μL per well of RFW and the lipid nanoparticle-containing solution adjusted to the above concentration was added. • (v) The 24-well black plates were placed in an incubator, and the cells were cultured for 24 hours under conditions of 37° C. and 5% CO2.
(§4) C. Evaluation of Protein Expression Effect (Detection of Gaussia Luciferase (GLuc))
(§5) Evaluation of the protein expression effect was carried out by using Gaussia Luciferase Assay Kit manufactured by Thermo Scientific. • (i) The cells cultured in B. (v) above were taken out from the incubator and allowed to stand at room temperature. • (ii) 20 μL of the supernatant in the plates was collected and added to a fresh 96-well white plate. • (iii) 100× Coelenterazine and Gaussia Glow Assay Buffer attached to the kit were returned to room temperature and mixed at 1:100 to prepare a solution. The prepared solution was added to the supernatant at 50 μL per well by using a multipipette. • (iv) The plate was shielded from light with aluminum foil, allowed to stand for 10 minutes, and then measured for the amount of luminescence with a plate reader (manufactured by TECAN, Infinite M200) (measurement time: 2 seconds), and the protein expression level was calculated by using the resulting amount of luminescence as an index.

[4] = tested on: NIH3T3 cells; assay: as above; assay type: cell-based; conditions: lipid nanoparticle containing mRNA, 100 ng mRNA/20 μL per well, 24 hours, amount of luminescence as index
Method: as §1, §2, §3, §4, §5

[5] = tested on: HEK293T cells and NIH3T3 cells; assay: Evaluation of toxicity (CellTiter-Fluor Cell Viability Assay, CTF); assay type: cell-based; conditions: lipid nanoparticle containing mRNA; number of surviving cells relative to cells without lipid nanoparticle set at 1; one rating per lipid, printed on the HEK293T line
Method: as §1
as §2, with “CO2. […]” for “CO2.”
D. Evaluation of Toxicity (CellTiter-Fluor (Registered Trademark) Cell Viability Assay) • (i) The CellTiter-Fluor (registered trademark) Cell Viability (CTF) Assay Reagent was completely thawed in a 37° C. water bath. • (ii) GF-AFC Substrate was uniformly mixed by using a vortex mixer. • (iii) The required amounts of Buffer and GF-AFC Substrate attached to the CTF Assay Reagent (Kit) were mixed at a mixing ratio of 10 mL:10 μL. • (iv) 100 μL per well of the mixed CTF Reagent mixture was added to a 24-well black plate containing the cells cultured in B. (v) above, and the plate was quickly shielded from light with aluminum foil, and then shaken on a plate shaker for 30 seconds. • (v) The plate was placed in an incubator, […], and the cells were cultured for 30 minutes under conditions of 37° C. and 5% CO2. • (vi) The fluorescence intensity was measured with a plate reader (excitation wavelength of 380 nm, fluorescence wavelength of 505 nm). Based on the obtained measurement results, the number of surviving cells was calculated with the fluorescence intensity of cells to which no lipid nanoparticle was added set at 1. […]

## CCCCCCCCCCCOC(=O)CCCCCN(CCO)CCCCCCCC(=O)OC(CCCCCCCC)CCCCCCCC [Reference Example 1, reference compound]
[1]; lipid nanoparticle containing mRNA (Table 3)
  PDI: 0.232
[1]; lipid nanoparticle containing mRNA (Table 3), pH 7.4 Tris-HCl
  Zeta potential (mV): −4.3 mV
[1]; lipid nanoparticle containing mRNA, main lipid/DPPC/cholesterol=45/10/45 (r1: r1/DSPC/cholesterol/PEG2000-DMG=50/10/38.5/1.5)
  Particle size (nm): 64.4 nm
[2]
  Encapsulation rate (%): 93%
[3]
  Protein expression level: 320,000
[4]
  Protein expression level: 7,000
[5]
  CTF Assay: ⊚ (When the number of surviving cells was more than 0.80 and 1.00 or less, a rating of double-circle (excellent) was given)
